± gives the expanded uncertainty stated by the source.
Assay: mn = molality of the nth substance listed, in mol/kg
Conditions: 101 kPa, Liquid, Buoyancy - hydrostatic balance with magnetic suspension - one sinker

## [Cl-].[K+] [potassium chloride] + O
298.15 K, m1 = 0.0306
  mass density: 998.491 ± 0.41 kg/m3
303.15 K, m1 = 0.0105
  mass density: 996.131 ± 0.41 kg/m3
303.15 K, m1 = 0.02061
  mass density: 996.605 ± 0.41 kg/m3
